The source of these data is patent US5977169A, “Substituted tetronic acids useful for treating HIV and other retroviruses” (priority 1997, dated 1999).

The experiment deals with T1, HIV-1 protease (Human immunodeficiency virus type 1 group M subtype B, UniProt P04585).
T1 construct: The protease (or proteinase) enzyme, consisting of only 99 amino acids
The experiment can be described thus: In vitro HIV protease inhibitory assay (fluorescently labeled substrate, avidin-polystyrene particles). The note with it: for inhibition at 3.3 µM: HIV-1 dose 3.3 μM; for inhibition at 10 µM: HIV-1 dose 10.0 μM; for inhibition at 30 µM: HIV-1 dose 30.0 μM; for inhibition at 0.37 µM: HIV-1 dose 0.37 μM; for inhibition at 1.1 µM: HIV-1 dose 1.1 μM. It counts as biochemical. As for the experimental part: The HIV protease screening assay is based on a fluorescently labeled substrate which can be resolved from nonlabeled cleavage product using avidin-polystyrene particles, 0.7-0.9 μm. The substrate is biotinylated at the amino terminal arginine and fluorescently labeled with fluorescein isothiocynate (FITC) at the carboxyl terminal lysine. This assay has been employed to detect novel, nonpeptidic inhibitors of HIV-1 protease. Substrate (20 μl of 0.2 μM), sample (10 μl of desired concentraion), and enzyme (10 μl of 0.1 μM) are added to a 96 well pandex plate. The assay is run in 0.1 M sodium acetate buffer at pH 5.5 in the presence of 1.0 M sodium chloride and 0.05% NP-40 and incubated in the dark for one hour at room temperature. Avidin coated polystyrene beads (40 μl of 0.1% (w/v)) are added and the incubation is continued in the dark for an additional half hour. The labeled cleavage product is separated from the unreacted substrate via filtration and is read on the IDEXX Screen Machine. (IDEXX Corporation--Portland, Me.) The data are analyzed by appropriate computer algorithms to ascertain percent inhibition values.
The Activity Table showing the results of the HIV Protease Inhibitory Assay appears below in TABLE 1. The table has three columns, the left column provides the code number of the compound for easy cross reference to structure tables and detailed procedures, the middle column provides the concentration of test compound and the column on the right provides the percent inhibition.

Molecules are shown by their SMILES.

Turning to `CCCC1(CCc2ccccc2)OC(=O)C(C(c2ccccc2)C2CC2)=C1O` (stereo not shown) [DX-8, 2(5H)-Furanone, 3-(cyclopropylphenylmethyl)-4-hydroxy-5-(2-phenyl-ethyl)-5-propyl-], the inhibition at 3.3 µM was 114%, the inhibition at 10 µM was determined as 109% and the inhibition at 30 µM came to 103%.
For `O=C1OC(CCc2ccccc2)(CCc2ccccc2)C(O)=C1C(c1ccccc1)C1CC1` (stereo not shown) [DX-9, 2(5H)-Furanone, 3-(cyclopropylphenylmethyl)-4-hydroxy-5,5-bis(2-phenylethyl)-] the same measures were 86.7%, 104% and 99.8%.
For `CC1(CCCc2ccccc2)OC(=O)C(C(c2ccccc2)C2CC2)=C1O` (stereo not shown) [DX-10, 2(5H)-Furanone, 3-(cyclopropylphenylmethyl)-4-hydroxy-5-methyl-5-(3-phenyl-propyl)-], the inhibition at 3.3 µM was 112%, the inhibition at 10 µM worked out at 104% and the inhibition at 30 µM turned out to be 91.5%.
On to `CCC1(CCCc2ccccc2)OC(=O)C(C(c2ccccc2)C2CC2)=C1O` (stereo not shown) [DX-11, 2(5H)-Furanone, 3-(cyclopropylphenylmethyl)-5-ethyl-4-hydroxy-5-(3-phenyl-propyl)-], for which the inhibition at 3.3 µM worked out at 101%, the inhibition at 10 µM was found to be 111% and the inhibition at 30 µM is 105%.
With `CCCCC1(CCCc2ccccc2)OC(=O)C(C(c2ccccc2)C2CC2)=C1O` (stereo not shown) [DX-12, 2(5H)-Furanone, 5-butyl-3-(cyclopropylphenylmethyl)-4-hydroxy-5-(3-phenyl-propyl)-], the inhibition at 3.3 µM was 116%, the inhibition at 10 µM amounted to 129% and the inhibition at 30 µM is 123%.
For the molecule `O=C1OC(CCCc2ccccc2)(CCCc2ccccc2)C(O)=C1C(c1ccccc1)C1CC1` (stereo not shown) [DX-13, 2(5H)-Furanone, 3-(cyclopropylphenylmethyl)-4-hydroxy-5,5-bis(3-phenyl-propyl)-], the inhibition at 3.3 µM was 85%, the inhibition at 10 µM worked out at 102% and the inhibition at 30 µM amounted to 106%.
As for `O=C1OC(CCCc2ccccc2)(CC2CC2)C(O)=C1C(c1ccccc1)C1CC1` (stereo not shown) [DX-14], the inhibition at 0.37 µM came to 104%. For the same molecule, the inhibition at 0.123 µM (HIV-1 dose 0.123 μM) came to 89.2%.
As for `O=C1OC(CCCc2ccccc2)(Cc2ccccc2)C(O)=C1C(c1ccccc1)C1CC1` (stereo not shown) [DX-15, 2(5H)-Furanone, 3-(cyclopropylphenylmethyl)-4-hydroxy-5-(phenylmethyl)-5-(3--phenylpropyl)-], the inhibition at 3.3 µM came to 108%, the inhibition at 10 µM was determined as 116% and the inhibition at 30 µM came to 114%.
Taken in the same sequence, the figures for `C=CCC1(CCCc2ccccc2)OC(=O)C(C(c2ccccc2)C2CC2)=C1O` (stereo not shown) [DX-16, 2(5H)-Furanone, 3-(cyclopropylphenylmethyl)-4-hydroxy-5-(3-phenyl-propyl)-5-(2-propenyl)-] were 114%, 115% and 118%.
Turning to `CC(C)C1(CCCc2ccccc2)OC(=O)C(C(c2ccccc2)C2CC2)=C1O` (stereo not shown) [DX-17, 2(5H)-Furanone, 3-(cyclopropylphenylmethyl)-4-hydroxy-5-(1-methylethyl)-5-(3--phenylpropyl)-], the inhibition at 3.3 µM was 103%, the inhibition at 10 µM came to 97.6% and the inhibition at 30 µM stood at 96%.
Taken in the same sequence, the figures for `O=C1OC(CCCc2ccccc2)(CCc2ccccc2)C(O)=C1C(c1ccccc1)C1CC1` (stereo not shown) [DX-18, 2(5H)-Furanone, 3-(cyclopropylphenylmethyl)-4-hydroxy-5-(2-phenyl-ethyl)-5-(3-phenylpropyl)-] were 113%, 114% and 101%.
With `CCC(C)C1(CCCc2ccccc2)OC(=O)C(C(c2ccccc2)C2CC2)=C1O` (stereo not shown) [DX-19, 2(5H)-Furanone, 3-(cyclopropylphenylmethyl)-4-hydroxy-5-(1-methylpropyl)--5-(3-phenylpropyl)-], the inhibition at 0.37 µM turned out to be 100%, the inhibition at 1.1 µM is 103% and the inhibition at 3.3 µM was found to be 100%.
Consider `CC(C)CC1(CCCc2ccccc2)OC(=O)C(C(c2ccccc2)C2CC2)=C1O` (stereo not shown) [DX-20, 2(5H)-Furanone, 3-(cyclopropylphenylmethy)-4-hydroxy-5-(2-methylpropyl)-5--(3-phenylpropyl)-], for which the inhibition at 0.37 µM was 71.5% and the inhibition at 1.1 µM worked out at 90.3%. Also, the inhibition at 0.12 µM (HIV-1 dose 0.12 μM) turned out to be 29.2%.
As to `O=C1OC(CCCc2ccccc2)C(O)=C1C(Cc1ccccc1)c1ccccc1` (stereo not shown) [FX-1, 2(5H)-Furanone, 3-(1,2-diphenylethyl)-4-hydroxy-5-(3-phenylpropyl)-], the inhibition at 3.3 µM amounted to 15.5%, the inhibition at 10 µM was 35.4% and the inhibition at 30 µM worked out at 50.6%.
For the molecule `O=C1OC(CCCc2ccccc2)C(O)=C1C(c1ccccc1)c1ccccc1` (stereo not shown) [FX-2, 2(5H)-Furanone, 3-(diphenylmethyl)-4-hydroxy-5-(3-phenylpropyl)-], the inhibition at 3.3 µM is 41.5%, the inhibition at 10 µM came out at 69% and the inhibition at 30 µM stood at 77.3%.
Taken in the same sequence, the figures for `C=CC(C1=C(O)C(CCCc2ccccc2)OC1=O)c1ccccc1` (stereo not shown) [FX-3, 2(5H)-Furanone, 4-hydroxy-3-(1-phenyl-2-propenyl)-5-(3-phenylpropyl)-] were 38.6%, 66.3% and 68.6%.
For `CC(C)C(C1=C(O)C(CCCc2ccccc2)OC1=O)c1ccccc1` (stereo not shown) [FX-4, 2(5H)-Furanone, 4-hydroxy-3-(2-methyl-1-phenylpropyl)-5-(3-phenylpropyl)-] the same measures were 56.6%, 84.4% and 96.5%.
Taken in the same sequence, the figures for `CC(C)(C)C(C1=C(O)C(CCCc2ccccc2)OC1=O)c1ccccc1` (stereo not shown) [FX-5, 2(5H)-Furanone, 3-(2,2-dimethyl-1-phenylpropyl)-4-hydroxy-5-(3-phenyl-propyl)-] were 61.9%, 84.4% and 84.3%.
For `CCCCC(CCc1ccccc1)C1OC(=O)C(C(c2ccccc2)C2CC2)=C1O` (stereo not shown) [GX-2, 2(5H)-Furanone, 3-(cyclopropylphenylmethyl)-4-hydroxy-5-(1-(2-phenyl-ethyl)pentyl)-], the inhibition at 3.3 µM worked out at 70.9%, the inhibition at 10 µM was determined as 88.3% and the inhibition at 30 µM was found to be 74.9%.
Taken in the same sequence, the figures for `CC(CCc1ccccc1)C1OC(=O)C(C(c2ccccc2)C2CC2)=C1O` (stereo not shown) [GX-3, 2(5H)-Furanone, 3-(cyclopropylphenylmethyl)-4-hydroxy-5-(1-methyl-3-phenyl-propyl)-] were 67.2%, 84.7% and 87.4%.
For `O=C1OC(C(CCc2ccccc2)c2ccccc2)C(O)=C1C(c1ccccc1)C1CC1` (stereo not shown) [GX-4, 2(5H)-Furanone,3-(cyclopropylphenylmethyl)-5-(1,3-diphenylpropyl)-4-hydroxy-] the same measures were 93.6%, 108% and 103%.
For `CCCCC(CC)C1OC(=O)C(C(c2ccccc2)C2CC2)=C1O` (stereo not shown) [GX-5, 2(5H)-Furanone, 3-(cyclopropylphenylmethyl)-5-(1-ethylpentyl)-4-hydroxy-] the same measures were 94%, 94.1% and 99.2%.
On to `CCC(c1ccccc1)C1OC(=O)C(C(c2ccccc2)C2CC2)=C1O` (stereo not shown) [GX-6, 2(5H)-Furanone, 3-(cyclopropylphenylmethyl)-4-hydroxy-5-(1-phenylpropyl)-], for which the inhibition at 3.3 µM turned out to be 91.9%, the inhibition at 10 µM turned out to be 99.7% and the inhibition at 30 µM is 103%.
For `CCCC(c1ccccc1)C1OC(=O)C(C(c2ccccc2)C2CC2)=C1O` (stereo not shown) [GX-7, 2(5H)-Furanone, 3-(cyclopropylphenylmethyl)-4-hydroxy-5-(1-phenylbutyl)-] the same measures were 92.7%, 103% and 102%.
Taken in the same sequence, the figures for `CCC(CC)C1OC(=O)C(C(c2ccccc2)C2CC2)=C1O` (stereo not shown) [GX-8, 2(5H)-Furanone, 3-(cyclopropylphenylmethyl)-5-(1-ethylpropyl)-4-hydroxy-] were 85.9%, 104% and 84.3%.
For the molecule `COC(=O)CC(CCc1ccccc1)C1OC(=O)C(C(c2ccccc2)C2CC2)=C1O` (stereo not drawn) [HX-1, 2-Furanpropanoic acid, 4-(cyclopropylphenyl-methyl)-2,5-dihydro-3-hydroxy-5--oxo-β-(2-phenylethyl)-, methyl ester], the inhibition at 1.1 µM was 37.6%, the inhibition at 3.3 µM was determined as 62.1% and the inhibition at 10 µM worked out at 90.9%.
With `O=C1OC(C(CCO)CCc2ccccc2)C(O)=C1C(c1ccccc1)C1CC1` (stereo not shown) [HX-2, 2(5H)-Furanone, 3-(cyclopropylphenylmethyl)-4-hydroxy-5-(1-(2-hydroxyethyl)--3-phenylpropyl)-], the inhibition at 0.1 µM (HIV-1 dose 0.1 μM) is below 10%. Moreover, the inhibition at 0.3 µM (HIV-1 dose 0.3 μM) was determined as 13.5%.

As a reminder, the inhibition is the drop in the measured response relative to a control, in per cent.
